We go through two compounds from BindingDB's records for doi:10.1021/jm301304e (University of Toyama, 2012).

The experiment in a line: Inhibition of bovine liver beta-glucosidase.

One may read the IC50 as the concentration that inhibits the measured activity by half. A higher IC50 goes with weaker potency in that assay.

The compound `CCCC[C@H]1N[C@H](CO)[C@@H](O)[C@H](O)[C@H]1O` [(2R,3S,4R,5R,6R)-2-butyl-6-(hydroxymethyl)piperidine-3,4,5-triol] gave a half-inhibitory concentration (IC50) of 120 µM. The same measure for `OC[C@H]1NC[C@H](O)[C@@H](O)[C@@H]1O` [(2R,3R,4R,5S)-2-(hydroxymethyl)piperidine-3,4,5-triol]: 210 µM.
